According to patent US20120165304A1, “6,7,8,9-Tetrahydro-5H-1,4,7,10a-tetraaza-cyclohept[f]indene derivatives, pharmaceutical compositions containing these compounds, their use and processes for preparing them” (BOEHRINGER INGELHEIM INTERNATIONAL GMBH, priority 2008, published 2012):

Target: human 5-HT2C receptor (Homo sapiens, UniProt P28335, I156V/I160V/N158S)
Assay: cell-based

human 5-HT2C receptor, sequence (P28335 33-458 I156V/N158S/I160V limits assumed): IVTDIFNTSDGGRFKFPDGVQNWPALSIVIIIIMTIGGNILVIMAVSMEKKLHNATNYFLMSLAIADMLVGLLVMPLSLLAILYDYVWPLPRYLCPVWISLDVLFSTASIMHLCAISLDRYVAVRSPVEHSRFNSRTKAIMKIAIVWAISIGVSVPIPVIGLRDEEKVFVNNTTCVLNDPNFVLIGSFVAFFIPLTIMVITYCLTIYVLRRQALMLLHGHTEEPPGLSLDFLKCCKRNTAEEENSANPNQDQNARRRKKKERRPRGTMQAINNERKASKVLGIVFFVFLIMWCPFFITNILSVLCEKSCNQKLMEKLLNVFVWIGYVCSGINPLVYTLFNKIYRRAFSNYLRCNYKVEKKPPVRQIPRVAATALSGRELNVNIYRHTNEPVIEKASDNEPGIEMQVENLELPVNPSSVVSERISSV

Compound	EC50
CN(Cc1ccc(Cl)c(Cl)c1)C(=O)C1CN(c2c3c(nc4ccnn24)CCNCC3)C1 [Example 31.81]	33 nM
CN(Cc1cccc(Cl)c1Cl)C(=O)C1CN(c2c3c(nc4ccnn24)CCNCC3)C1 [Example 31.168]	107 nM
COc1cc(C)cc(OCC2CN(c3c4c(nc5ccnn35)CCNCC4)C2)c1 [Example 15.22]	141 nM
c1ccc(OCC2CN(c3c4c(nc5ccnn35)CCNCC4)C2)nc1 [Example 15.28]	24 nM
O=C(C1CN(c2c3c(nc4ccnn24)CCNCC3)C1)N1CCC(c2ccc(Br)cc2)CC1 [Example 31.112]	131 nM
O=C(C1CN(c2c3c(nc4ccnn24)CCNCC3)C1)N1CCC(c2ccc(F)cc2F)CC1 [Example 31.114]	38 nM
O=C(C1CN(c2c3c(nc4ccnn24)CCNCC3)C1)N1CCc2sccc2C1 [Example 31.36]	57 nM
COc1ccccc1CN(C)C(=O)C1CN(c2c3c(nc4ccnn24)CCNCC3)C1 [Example 31.51]	85 nM
c1cc(OC2CN(c3c4c(nc5ccnn35)CCNCC4)C2)c2ccncc2c1 [Example 35.16]	92 nM
CC1(C(=O)N2CCC3(CCOC3)CC2)CN(c2c3c(nc4ccnn24)CCNCC3)C1 [Example 32.4]	4270 nM
O=C(NCC1CCCCC1)C1CN(c2c3c(nc4ccnn24)CCNCC3)C1 [Example 31.225]	111 nM
Cc1cccc(CN(C)C(=O)C2CN(c3c4c(nc5ccnn35)CCNCC4)C2)n1 [Example 31.208]	62 nM
COc1ccc(OCC2CN(c3c4c(nc5ccnn35)CCNCC4)C2)cc1 [Example 15.3]	10 nM
Cc1nc(CN(C)C(=O)C2CN(c3c4c(nc5ccnn35)CCNCC4)C2)c(C)o1 [Example 31.58]	53 nM
CC(C)CC(=O)N1CCN(C(=O)C2CN(c3c4c(nc5ccnn35)CCNCC4)C2)CC1 [Example 37.57]	27 nM
C[C@@H]1C[C@H](C)CN(C(=O)C2CN(c3c4c(nc5ccnn35)CCN(C)CC4)C2)C1 [Example 36.15]	154 nM
CN(Cc1cccs1)C(=O)C1CN(c2c3c(nc4ccnn24)CCNCC3)C1 [Example 31.43]	35 nM

Compound	EC50
O=C(C1CN(c2c3c(nc4ccnn24)CCNCC3)C1)N1CCC2(CC1)OCc1ccccc12 [Example 31.153]	86 nM
COc1cccc(OC2CN(c3c4c(nc5ccnn35)CCNCC4)C2)c1Cl [Example 35.33]	90 nM
COc1cc(F)ccc1OCC1CN(c2c3c(nc4ccnn24)CCNCC3)C1 [Example 15.8]	6 nM
CC1(C)CCN(C(=O)C2CN(c3c4c(nc5ccnn35)CCNCC4)C2)CC1 [Example 31.47]	21 nM
CN1C(C)(C)CC(NC(=O)C2CN(c3c4c(nc5ccnn35)CCNCC4)C2)CC1(C)C [Example 37.106]	9 nM
Cc1cccnc1CN(C)C(=O)C1CN(c2c3c(nc4ccnn24)CCNCC3)C1 [Example 31.196]	195 nM
c1ccc(COC2CN(c3c4c(nc5ccnn35)CCNCC4)C2)nc1 [Example 20.15]	180 nM
CN1CCc2nc3ccnn3c(N3CC(C(=O)N4CCN(C(=O)C5CCCCC5)CC4)C3)c2CC1 [Example 36.22]	181 nM
CCCCn1c(C2CN(c3c4c(nc5ccnn35)CCNCC4)C2)nc2ccccc21 [Example 34.26]	1150 nM
Cc1ccc(OC2CN(c3c4c(nc5ccnn35)CCNCC4)C2)c(C)c1 [Example 35.6]	266 nM
CN(Cc1ccc2ccccc2c1)C(=O)C1CN(c2c3c(nc4ccnn24)CCNCC3)C1 [Example 31.169]	33 nM
CC(C)C(NC(=O)C1CN(c2c3c(nc4ccnn24)CCNCC3)C1)C(F)(F)F (stereo not drawn) [Example 37.104]	106 nM
CN1CCc2nc3ccnn3c(N3CC(C(=O)N4CCC5(CC5)C4)C3)c2CC1 [Example 36.37]	61 nM
Cc1cnn2c(N3CC(C(=O)N4CCCC(F)(F)C4)C3)c3c(nc12)CCNCC3 [Example 31.238]	13 nM
Brc1ccc(OC2CN(c3c4c(nc5ccnn35)CCNCC4)C2)cc1 [Example 35.2]	184 nM
CN(Cc1ccccc1)C(=O)C1CN(c2c3c(nc4ccnn24)CCNCC3)C1 [Example 31.19]	50 nM
